From US7307100B2, “2-Benzoylchromone derivatives” (Merck Patent GmbH, priority 2002, dated 2007)

Legend:
TIE-2 = TIE-2 (Homo sapiens, UniProt Q02763); experiment: Inhibition of TIE-2 (tyrosine kinase); type: biochemical; conditions: read-out: Inhibition of TIE-2 expressed in IC50
Experimental: (§1) The 2-benzoylchromone derivatives were tested as tyrosine kinase inhibitors (see Table 1: Inhibition of TIE-2), but also as serine/threonine kinase inhibitors (see Table 1: PKB).

PKB = PKB (Homo sapiens, UniProt P31749); experiment: Inhibition of PKB (serine/threonine kinase); type: biochemical; conditions: read-out: Inhibition of PKB expressed in IC50
Experimental: as §1

TIE-2, sequence (Q02763 23-1124): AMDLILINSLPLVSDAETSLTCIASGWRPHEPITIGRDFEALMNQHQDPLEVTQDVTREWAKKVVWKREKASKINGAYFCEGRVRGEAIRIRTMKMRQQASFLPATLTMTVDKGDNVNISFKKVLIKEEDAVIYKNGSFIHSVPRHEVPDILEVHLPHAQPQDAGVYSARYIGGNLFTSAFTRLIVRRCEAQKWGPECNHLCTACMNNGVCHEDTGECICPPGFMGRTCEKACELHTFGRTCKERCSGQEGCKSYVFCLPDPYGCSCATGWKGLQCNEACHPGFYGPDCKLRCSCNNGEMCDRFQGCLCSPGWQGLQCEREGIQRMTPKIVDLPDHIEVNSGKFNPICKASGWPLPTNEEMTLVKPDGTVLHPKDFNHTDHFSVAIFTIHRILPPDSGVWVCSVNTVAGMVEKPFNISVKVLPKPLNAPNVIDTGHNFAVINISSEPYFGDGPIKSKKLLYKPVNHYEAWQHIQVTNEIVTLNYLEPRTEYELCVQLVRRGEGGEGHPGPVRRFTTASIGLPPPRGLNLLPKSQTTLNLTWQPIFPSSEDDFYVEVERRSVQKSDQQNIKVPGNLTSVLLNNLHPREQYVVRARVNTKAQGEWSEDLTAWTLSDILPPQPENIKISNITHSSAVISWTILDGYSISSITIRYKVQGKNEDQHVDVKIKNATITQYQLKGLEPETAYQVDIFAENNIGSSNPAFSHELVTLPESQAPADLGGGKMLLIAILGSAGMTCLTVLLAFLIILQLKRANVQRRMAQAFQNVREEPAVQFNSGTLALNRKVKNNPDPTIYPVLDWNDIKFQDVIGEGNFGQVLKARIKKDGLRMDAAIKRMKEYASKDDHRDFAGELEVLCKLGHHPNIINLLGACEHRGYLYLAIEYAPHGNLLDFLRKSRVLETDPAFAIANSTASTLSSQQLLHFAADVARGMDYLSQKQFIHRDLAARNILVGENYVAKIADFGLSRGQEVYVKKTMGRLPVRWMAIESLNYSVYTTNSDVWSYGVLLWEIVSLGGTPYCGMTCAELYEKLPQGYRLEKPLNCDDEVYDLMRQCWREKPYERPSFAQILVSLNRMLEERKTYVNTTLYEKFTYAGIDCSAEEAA
PKB, sequence (P31749 whole entry): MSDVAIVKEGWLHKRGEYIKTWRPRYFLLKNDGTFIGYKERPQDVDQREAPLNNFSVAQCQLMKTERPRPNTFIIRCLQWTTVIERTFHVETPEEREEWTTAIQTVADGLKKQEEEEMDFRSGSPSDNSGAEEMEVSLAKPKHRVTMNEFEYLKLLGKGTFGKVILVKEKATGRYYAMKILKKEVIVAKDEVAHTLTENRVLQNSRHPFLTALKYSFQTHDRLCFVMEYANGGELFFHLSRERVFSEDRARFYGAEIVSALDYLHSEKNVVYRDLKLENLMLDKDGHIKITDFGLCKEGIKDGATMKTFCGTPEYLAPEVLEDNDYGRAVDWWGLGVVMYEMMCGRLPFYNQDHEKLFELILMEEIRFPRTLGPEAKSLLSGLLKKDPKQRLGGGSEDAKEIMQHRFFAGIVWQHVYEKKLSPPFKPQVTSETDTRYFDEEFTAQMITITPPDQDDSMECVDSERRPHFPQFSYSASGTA

SMILES | IC50 (TIE-2) [µM] | IC50 (PKB) [µM]
O=C(c1cc(=O)c2c(O)cccc2o1)c1ccc(O)cc1O [5-hydroxy-2-(2′,4′-dihydroxybenzoyl)chromone] | > 10 | > 30
O=C(c1cc(=O)c2cc3c(cc2o1)OCO3)c1cc2c(cc1O)OCO2 [6,7-methylenedioxy-2-(2′-hydroxy-4′,5′-methylenedioxybenzoyl)chromone] | 3.6 | > 30
O=C(c1cc(=O)c2cc(O)ccc2o1)c1cc2c(cc1O)OCO2 [6-hydroxy-2-(2′-hydroxy-4′,5′-methylenedioxybenzoyl)chromone] | > 10 | > 30
